Literature values as cited in patent US5670479A, “α-ketoamide derivatives as inhibitors of thrombosis” (Corvas International, Inc., priority 1994, dated 1997).
Values after ≈ are worked out from the molar mass of the structure shown.

Columns and labels:
[1] = molecular target: T1, microsomal aminopeptidase (Sus scrofa, UniProt P15145); details: Ocain et al. 1992; cited from earlier work
T1 sequence (P15145 1-963): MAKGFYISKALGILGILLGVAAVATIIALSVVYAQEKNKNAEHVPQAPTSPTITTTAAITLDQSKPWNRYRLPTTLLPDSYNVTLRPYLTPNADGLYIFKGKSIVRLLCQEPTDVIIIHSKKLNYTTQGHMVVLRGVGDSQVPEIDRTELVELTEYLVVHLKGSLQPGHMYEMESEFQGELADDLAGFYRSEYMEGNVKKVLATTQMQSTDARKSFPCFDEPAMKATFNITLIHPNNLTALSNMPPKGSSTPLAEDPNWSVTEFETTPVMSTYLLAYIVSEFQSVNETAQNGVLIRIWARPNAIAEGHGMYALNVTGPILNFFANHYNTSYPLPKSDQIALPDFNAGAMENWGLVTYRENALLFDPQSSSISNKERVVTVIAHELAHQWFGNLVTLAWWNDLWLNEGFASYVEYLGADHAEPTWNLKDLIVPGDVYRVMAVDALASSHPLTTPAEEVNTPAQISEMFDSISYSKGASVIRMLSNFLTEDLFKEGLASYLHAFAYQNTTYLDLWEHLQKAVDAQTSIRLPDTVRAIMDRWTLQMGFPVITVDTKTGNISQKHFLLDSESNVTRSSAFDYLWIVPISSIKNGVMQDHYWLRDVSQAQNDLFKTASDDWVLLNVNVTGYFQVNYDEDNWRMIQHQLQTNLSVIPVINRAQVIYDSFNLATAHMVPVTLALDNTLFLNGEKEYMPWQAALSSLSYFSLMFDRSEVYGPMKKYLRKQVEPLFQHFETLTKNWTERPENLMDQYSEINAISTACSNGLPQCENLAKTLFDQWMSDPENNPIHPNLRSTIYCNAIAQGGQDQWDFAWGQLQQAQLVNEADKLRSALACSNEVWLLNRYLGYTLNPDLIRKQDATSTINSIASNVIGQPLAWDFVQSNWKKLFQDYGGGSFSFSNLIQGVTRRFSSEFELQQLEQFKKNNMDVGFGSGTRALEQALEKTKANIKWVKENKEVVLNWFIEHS

baboons [2] = details: baboon; dose which gives a 50% inhibition of platelet deposition; other direct antithrombins evaluated earlier in this model; cited from earlier work
baboons [3] = details: baboon, other direct antithrombins evaluated earlier in this model, cited from earlier work; for Antihemostatic Effects APTT: control 32 sec; for Antihemostatic Effects Bleeding Time: control 4 min
thrombin [4] = details: Fusetani et al.; cited from earlier work
thrombin [5] = molecular target: thrombin (Homo sapiens, UniProt P00734); details: reported in literature; cited from earlier work

Compound	Antithrombotic Effects ED50 (baboons [2])	Antihemostatic Effects APTT (baboons [3])	Antihemostatic Effects Bleeding Time (baboons [3])	other results
NC(=O)C(=O)C(N)Cc1ccccc1 (centres unmarked) [3-Amino-2-oxo-4-phenylbutanoic acid amide]	–	–	–	Ki [1]: 2500 nM
CC1CNc2c(cccc2S(=O)(=O)N[C@@H](CCCNC(=N)N)C(=O)N2CC[C@@H](C)C[C@@H]2C(=O)O)C1 (stereo partly drawn) [Argatroban, 2R,4R-4-methyl-1-[N-2-(3-methyl-1,2,3,4-tetrahydro-8-quinolinesulfonyl)-L-argininal]-2-piperdinecarboxylic acid]	> 800 nmol/kg/min	> 300 s	–	–
N=C(N)NCCC[C@@H]1NC(=O)[C@@H]2CCCN2C(=O)[C@@H](NC=O)CNC(=O)/C=C/[C@H](Cc2ccc(O)cc2)NC(=O)[C@@H](Cc2ccccc2)NC(=O)C1=O [Cyclotheonamide A]	–	–	–	IC50 (thrombin) (thrombin [4]): 76 µg/mL (≈ 104 µM)
N=C(N)NCCC[C@@H](C=O)NC(=O)[C@@H]1CCCN1C(=O)[C@H](N)Cc1ccccc1 [dF-P-R-al, D-phenylalanyl-prolyl-argininal]	250 nmol/kg/min	145 s	14 min	–
NC(N)=NCCC[C@H](NC(=O)[C@@H]1CCCN1C(=O)[C@H](N)Cc1ccccc1)B(O)O [dF-P-boroR, D-phenyalanyl-prolinyl-boroarginine]	25 nmol/kg/min	95 s	12 min	–
N-acetyl-D-Phe-Pro Arg-[yC(=O)--CH2 ]--CH2 --CH2 --CH2 --(C=O)-Gln-Ser-His-Asn-Asp-Gly-Asp-Phe-Glu-Glu-Ile-Pro-Glu-Glu-Tyr-Leu-Gln	–	–	–	Ki (thrombin [5]): 0.14 nM
